IC50 data for 15 compounds are collected here from patent publication US6984649B1, “Pyridine derivatives” (Bayer Aktiengesellschaft, priority 2000, dated 2006).

Each structure is given as a SMILES string. Structures can show the parent of a compound that is named as a salt.

The target of the assay is T1, human IKK-β (Homo sapiens, UniProt O14920).
T1 construct: A cDNA fragment encoding human IKK-β open reading frame was generated by PCR; His tag (from pcDNA3.1/His C); made in house; host or cells: Sf21 insect cells (baculovirus); substrate made in E. coli
T1 sequence (O14920 1-756): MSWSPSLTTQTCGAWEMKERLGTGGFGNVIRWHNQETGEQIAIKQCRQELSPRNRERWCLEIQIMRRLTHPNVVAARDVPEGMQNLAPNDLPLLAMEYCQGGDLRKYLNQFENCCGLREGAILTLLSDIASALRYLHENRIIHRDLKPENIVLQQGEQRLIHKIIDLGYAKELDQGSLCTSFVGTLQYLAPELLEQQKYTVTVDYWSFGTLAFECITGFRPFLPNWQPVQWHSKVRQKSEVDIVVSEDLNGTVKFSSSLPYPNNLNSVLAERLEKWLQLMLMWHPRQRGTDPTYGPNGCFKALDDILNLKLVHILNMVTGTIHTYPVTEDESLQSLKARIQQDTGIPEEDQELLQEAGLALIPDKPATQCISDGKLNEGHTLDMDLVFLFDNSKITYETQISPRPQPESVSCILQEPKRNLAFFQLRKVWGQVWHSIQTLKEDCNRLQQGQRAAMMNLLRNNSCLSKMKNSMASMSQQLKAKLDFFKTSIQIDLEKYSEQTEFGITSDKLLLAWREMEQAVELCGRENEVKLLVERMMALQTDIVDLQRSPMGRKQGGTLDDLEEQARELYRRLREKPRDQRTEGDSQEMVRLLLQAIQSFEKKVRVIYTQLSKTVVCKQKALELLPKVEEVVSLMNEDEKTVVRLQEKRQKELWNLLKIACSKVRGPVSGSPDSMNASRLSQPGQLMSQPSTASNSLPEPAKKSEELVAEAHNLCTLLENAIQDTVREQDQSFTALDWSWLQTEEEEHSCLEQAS
As to the kind of experiment: IKK-β kinase inhibitory assay. The assay is classed as biochemical. The conditions noted are these: compounds as yielded by solid phase synthesis, purity about 40 to 90%, read-out: In vitro activity grade (In vitro IC50). In short, it runs like this:
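His-tagged human IKK-β from baculovirus-infected Sf21 cells (0.6 μg/ml final) phosphorylates biotinylated GST-IκBα(1-54) (0.2 μM) in Tris-HCl pH 7.6 buffer with MgCl2. ATP with [γ-33P]ATP added, then 2 h at room temperature. Biotinylated substrate captured on streptavidin plates; bound radioactivity counted by scintillation.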
One may read the IC50 as the concentration needed to halve the response being measured. As to `O=C1Nc2nc(-c3ccccc3O)cc(C3CCCNC3)c2CO1` (stereo not drawn) [Example 18-2, 7-(2-hydroxyphenyl)-5-(3-piperidinyl)-1,4-dihydro-2H-pyrido[2,3-d][1,3]oxazin-2-one hydrochloride], the IC50 was < 500 nM.

Take `CC1OC(=O)Nc2nc(-c3ccccc3O)cc(C3CCCNC3)c21` (stereo not drawn) [Example 18-3, hydrochloride]: the 50% inhibitory concentration (IC50) fell in the range of 500 to 2000 nM.

In the case of `NC(Cc1ccccc1)c1cc(-c2ccccc2O)nc2c1COC(=O)N2` (stereo not drawn) [Example 18-4/18-5, 5-(1-Amino-2-phenyl-ethyl)-7-(2-hydroxy-phenyl)-1,4-dihydro-pyrido[2,3-d][1,3]oxazin-2-one hydrochloride], the IC50 was < 500 nM.

On to `O=C1Nc2nc(-c3ccccc3O)cc(C3=CCCNC3)c2CO1` [Example 18-6], for which the IC50 was < 500 nM.

`Nc1nc(-c2c(O)cccc2OCc2ccccc2)cc2c1CN1CCCC2C1` (stereo not drawn) [Example 20-1, 2-(6-amino-5,9-diazatricyclo[7.3.1.02,7]trideca-2,4,6-trien-4-yl)-3-(benzyloxy)phenol hydrochloride]: the IC50 fell in the range of 500 to 2000 nM.

In the case of `Nc1nc(-c2ccccc2O)cc2c1CN[C@@H]2Cc1ccccc1` [Example 20-2, 2-[(1R)-4-amino-1-benzyl-2,3-dihydro-1H-pyrrolo[3,4-d]pyridin-6-yl]phenol hydrochloride], the IC50 was < 500 nM.

Regarding `Nc1nc(-c2c(O)cccc2OCC2CC2)cc(C2CCCNC2)c1CSc1ccccc1` (stereo not drawn) [Example 21-1, 2-[6-amino-5-[(phenylsulfanyl)methyl]-4-(3-piperidinyl)-2-pyridinyl]-3-(cyclopropylmethoxy)phenol hydrochloride], the IC50 was < 500 nM.

For `Nc1nc(-c2c(O)cccc2OCC2CC2)cc(C2CCNCC2)c1Cn1ccnc1` [Example 21-2, 2-[6-amino-5-(1H-imidazol-1-ylmethyl)-4-(4-piperidinyl)-2-pyridinyl]-3-(cyclopropylmethoxy)phenol hydrochloride], the 50% inhibitory concentration (IC50) is < 500 nM.

For the compound `Nc1nc(-c2c(O)cccc2OCC2CC2)cc(C2CCNCC2)c1COc1ccccc1` [Example 21-3, 2-[6-amino-5-(phenoxymethyl)-4-(4-piperidinyl)-2-pyridinyl]-3-(cyclopropylmethoxy)phenol hydrochloride], the IC50 was < 500 nM.

As for `Nc1nc(-c2c(O)cccc2OCC2CC2)cc(C2CCNCC2)c1CON1C(=O)CCC1=O` [Example 21-4, 1-{[2-amino-6-[2-(cyclopropylmethoxy)-6-hydroxyphenyl]-4-(4-piperidinyl)-3-pyridinyl]methoxy}-2,5-pyrrolidinedione hydrochloride], the half-inhibitory concentration (IC50) is < 500 nM.

Regarding `O=C1NCc2c(C3CCCNC3)cc(-c3ccccc3O)nc2N1` (stereo not drawn) [Example 22-1, 7-(2-hydroxyphenyl)-5-(3-piperidinyl)-3,4-dihydropyrido[2,3-d]pyrimidin-2(1H)-one hydrochloride], the IC50 is < 500 nM.

In the case of `O=C1NCc2c(C3CCCNC3)cc(-c3c(O)cccc3OCC3CC3)nc2N1` (stereo not drawn) [Example 22-2, 7-[2-(cyclopropylmethoxy)-6-hydroxyphenyl]-5-(3-piperidinyl)-3,4-dihydro-1H-pyrido[2,3-d]-pyrimidin-2-one hydrochloride], the IC50 is < 500 nM.

`O=C1NCc2c(C3CCNCC3)cc(-c3c(O)cccc3OCC3CC3)nc2N1` [Example 22-3, 7-[2-(cyclopropylmethoxy)-6-hydroxyphenyl]-5-(4-piperidinyl)-3,4-dihydro-1H-pyrido[2,3-d]pyrimidin-2-one hydrochloride]: the IC50 was < 500 nM.

With `O=S1(=O)NCc2c(C3CCCNC3)cc(-c3ccccc3O)nc2N1` (stereo not drawn) [Example 22-5, 2-[2,2-dioxido-5-(3-piperidinyl)-3,4-dihydro-1H-pyrido[2,3-c][1,2,6]thiadiazin-7-yl]phenol hydrochloride], the IC50 is < 500 nM.

In the case of `CC(=O)NCc1c(C2CCCNC2)cc(-c2c(O)cccc2OCC2CC2)nc1N` (stereo not drawn) [Example 23-1, N-{[2-amino-6-[2-(cyclopropylmethoxy)-6-hydroxyphenyl]-4-(3-piperidinyl)-3-pyridinyl]methyl}acetamide hydrochoride], the half-inhibitory concentration (IC50) is < 500 nM.
